Measured values: the NIST ThermoML archive (doi:10.1016/j.fluid.2011.06.011)
± gives the expanded uncertainty stated by the source.

Experiment: xn = mol fraction of the nth substance listed
Conditions: Liquid; for speed of sound: Sing-around technique in a fixed-path interferometer; for mass density: Vibrating tube method

C=CC(C)(O)CCC=C(C)C (stereo not drawn) [3,7-dimethyl-1,6-octadien-3-ol] + CCO
Conditions | mass density, 313.15 K [kg/m3] | mass density, 328.15 K [kg/m3] | speed of sound, 313.15 K [m/s] | speed of sound, 328.15 K [m/s]
101 kPa, x1 = 0.0493 | – | – | – | 1070.8 ± 0.7
101 kPa, x1 = 0.0506 | 784.31 ± 0.13 | 770.91 ± 0.14 | – | –
101 kPa, x1 = 0.0507 | – | – | 1122.4 ± 0.7 | –
101 kPa, x1 = 0.0996 | – | – | 1142.3 ± 0.7 | –
101 kPa, x1 = 0.1008 | 794.24 ± 0.13 | 780.72 ± 0.14 | – | 1095.1 ± 0.7
101 kPa, x1 = 0.1969 | 808.41 ± 0.14 | 795.22 ± 0.14 | 1177.2 ± 0.8 | 1125 ± 0.8
101 kPa, x1 = 0.2884 | 818.41 ± 0.16 | 805.21 ± 0.16 | – | –
101 kPa, x1 = 0.2959 | – | – | 1200.7 ± 1 | 1147.3 ± 0.9
101 kPa, x1 = 0.3918 | – | – | 1218.2 ± 1.1 | –
101 kPa, x1 = 0.3957 | 826.66 ± 0.19 | 813.44 ± 0.19 | – | 1163.9 ± 1.1
101 kPa, x1 = 0.4803 | 831.36 ± 0.23 | 818.17 ± 0.23 | – | –
101 kPa, x1 = 0.4834 | – | – | – | 1173.9 ± 1.2
101 kPa, x1 = 0.4854 | – | – | 1230.3 ± 1.2 | –
101 kPa, x1 = 0.593 | 835.94 ± 0.29 | 822.82 ± 0.29 | 1240 ± 1.4 | 1185.1 ± 1.4
101 kPa, x1 = 0.6838 | 838.63 ± 0.34 | 825.57 ± 0.34 | 1247.1 ± 1.5 | 1193.8 ± 1.5
101 kPa, x1 = 0.7832 | – | – | 1252.8 ± 1.7 | 1199 ± 1.7
101 kPa, x1 = 0.8438 | 841.86 ± 0.47 | 828.96 ± 0.46 | – | –
101 kPa, x1 = 0.8633 | – | – | 1257 ± 1.8 | 1203.2 ± 1.8
101 kPa, x1 = 0.8941 | 842.75 ± 0.51 | 829.77 ± 0.5 | – | –
101 kPa, x1 = 0.9286 | 843.29 ± 0.54 | 830.31 ± 0.53 | 1259.5 ± 1.9 | 1206.3 ± 1.9
101 kPa, x1 = 1 | 844.29 ± 0.61 | 831.31 ± 0.6 | 1260.8 ± 2 | 1207.6 ± 2
20000 kPa, x1 = 0.0511 | 801 ± 0.6 | 789.2 ± 0.6 | – | –
20000 kPa, x1 = 0.1003 | 809.9 ± 0.6 | 798.3 ± 0.6 | – | –
20000 kPa, x1 = 0.1962 | 823 ± 0.6 | 811.4 ± 0.6 | – | –
20000 kPa, x1 = 0.2989 | 833.1 ± 0.6 | 821.4 ± 0.6 | – | –
20000 kPa, x1 = 0.3996 | 840 ± 0.6 | 828.3 ± 0.6 | – | –
20000 kPa, x1 = 0.5015 | 845.2 ± 0.6 | 833.5 ± 0.6 | – | –
20000 kPa, x1 = 0.5982 | 848.8 ± 0.6 | 837.1 ± 0.6 | – | –
20000 kPa, x1 = 0.6898 | 851.6 ± 0.7 | 839.9 ± 0.7 | – | –
20000 kPa, x1 = 0.7929 | 854.1 ± 0.7 | 842.5 ± 0.7 | – | –
20000 kPa, x1 = 0.8885 | 856 ± 0.8 | 844.4 ± 0.8 | – | –
20000 kPa, x1 = 0.9435 | 856.9 ± 0.8 | 845.3 ± 0.8 | – | –
20000 kPa, x1 = 1 | 857.6 ± 0.8 | 846 ± 0.8 | – | –
25000 kPa, x1 = 0.0511 | 804.8 ± 0.6 | 793.4 ± 0.6 | – | –
25000 kPa, x1 = 0.1003 | 813.7 ± 0.6 | 802.2 ± 0.6 | – | –
25000 kPa, x1 = 0.1962 | 826.7 ± 0.6 | 815.2 ± 0.6 | – | –
25000 kPa, x1 = 0.2989 | 836.6 ± 0.6 | 825.1 ± 0.6 | – | –
25000 kPa, x1 = 0.3996 | 843.5 ± 0.6 | 831.9 ± 0.6 | – | –
25000 kPa, x1 = 0.5015 | 848.6 ± 0.6 | 837 ± 0.6 | – | –
25000 kPa, x1 = 0.5982 | 852.2 ± 0.6 | 840.6 ± 0.7 | – | –
25000 kPa, x1 = 0.6898 | 854.9 ± 0.7 | 843.4 ± 0.7 | – | –
25000 kPa, x1 = 0.7929 | 857.4 ± 0.7 | 845.9 ± 0.7 | – | –
25000 kPa, x1 = 0.8885 | 859.3 ± 0.8 | 847.8 ± 0.8 | – | –
25000 kPa, x1 = 0.9435 | 860.1 ± 0.8 | 848.6 ± 0.8 | – | –
25000 kPa, x1 = 1 | 860.9 ± 0.9 | 849.3 ± 0.9 | – | –
30000 kPa, x1 = 0.0511 | 808.5 ± 0.6 | 797.1 ± 0.6 | – | –
30000 kPa, x1 = 0.1003 | 817.2 ± 0.6 | 806 ± 0.6 | – | –
30000 kPa, x1 = 0.1962 | 830.1 ± 0.6 | 818.8 ± 0.6 | – | –
30000 kPa, x1 = 0.2989 | 839.9 ± 0.6 | 828.6 ± 0.6 | – | –
30000 kPa, x1 = 0.3996 | 846.7 ± 0.6 | 835.3 ± 0.6 | – | –
30000 kPa, x1 = 0.5015 | 851.7 ± 0.6 | 840.4 ± 0.6 | – | –
30000 kPa, x1 = 0.5982 | 855.3 ± 0.7 | 843.9 ± 0.7 | – | –
30000 kPa, x1 = 0.6898 | 858 ± 0.7 | 846.7 ± 0.7 | – | –
30000 kPa, x1 = 0.7929 | 860.5 ± 0.7 | 849.2 ± 0.8 | – | –
30000 kPa, x1 = 0.8885 | 862.3 ± 0.8 | 851 ± 0.8 | – | –
30000 kPa, x1 = 0.9435 | 863.1 ± 0.8 | 851.9 ± 0.8 | – | –
30000 kPa, x1 = 1 | 863.9 ± 0.9 | 852.6 ± 0.9 | – | –
35000 kPa, x1 = 0.0511 | 812 ± 0.6 | 800.7 ± 0.6 | – | –
35000 kPa, x1 = 0.1003 | 820.6 ± 0.6 | 809.6 ± 0.6 | – | –
35000 kPa, x1 = 0.1962 | 833.3 ± 0.6 | 822.3 ± 0.6 | – | –
35000 kPa, x1 = 0.2989 | 843 ± 0.6 | 832 ± 0.6 | – | –
35000 kPa, x1 = 0.3996 | 849.6 ± 0.6 | 838.6 ± 0.6 | – | –
35000 kPa, x1 = 0.5015 | 854.7 ± 0.6 | 843.6 ± 0.7 | – | –
35000 kPa, x1 = 0.5982 | 858.3 ± 0.7 | 847.2 ± 0.7 | – | –
35000 kPa, x1 = 0.6898 | 861 ± 0.7 | 849.9 ± 0.7 | – | –
35000 kPa, x1 = 0.7929 | 863.4 ± 0.8 | 852.3 ± 0.8 | – | –
35000 kPa, x1 = 0.8885 | 865.3 ± 0.8 | 854.2 ± 0.8 | – | –
35000 kPa, x1 = 0.9435 | 866.1 ± 0.9 | 855 ± 0.9 | – | –
35000 kPa, x1 = 1 | 866.8 ± 0.9 | 855.7 ± 0.9 | – | –
40000 kPa, x1 = 0.0511 | 815.4 ± 0.6 | 804.6 ± 0.6 | – | –
40000 kPa, x1 = 0.1003 | 824 ± 0.6 | 813.1 ± 0.6 | – | –
40000 kPa, x1 = 0.1962 | 836.5 ± 0.6 | 825.6 ± 0.6 | – | –
40000 kPa, x1 = 0.2989 | 846.2 ± 0.6 | 835.2 ± 0.6 | – | –
40000 kPa, x1 = 0.3996 | 852.8 ± 0.6 | 841.8 ± 0.6 | – | –
40000 kPa, x1 = 0.5015 | 857.8 ± 0.7 | 846.7 ± 0.7 | – | –
40000 kPa, x1 = 0.5982 | 861.3 ± 0.7 | 850.3 ± 0.7 | – | –
40000 kPa, x1 = 0.6898 | 864 ± 0.7 | 853 ± 0.7 | – | –
40000 kPa, x1 = 0.7929 | 866.3 ± 0.8 | 855.4 ± 0.8 | – | –
40000 kPa, x1 = 0.8885 | 868.2 ± 0.8 | 857.2 ± 0.8 | – | –
40000 kPa, x1 = 0.9435 | 869 ± 0.9 | 858.1 ± 0.9 | – | –
40000 kPa, x1 = 1 | 869.7 ± 0.9 | 858.8 ± 0.9 | – | –
